Measured values: patent publication US20210330611A1, “THERAPY FOR NEUROLOGICAL DISEASES/DISORDERS” (priority 2020, published 2021)
Where a name gives a salt, the structure may show the parent alone. Read-outs that look alike come from different tables or passages of the source. *1 amine or outer side, *2 acyl side, *3 side chain or, on linkers, in order; H or OH if unused. Where a SMILES comes first, the peptide text is derived from it. Bridges are numbered along the chain shown (N, C = ends). Roman numbers before positions name the chains, in order. [ ]: non-standard residue; d: D form. Actinocin(9to1) = Cc1c2oc3c(C)ccc(C(=O)[*:1])c3nc-2c(C(=O)[*:2])c(N)c1=O; NMeV = CN[C@H](C(=O)O)C(C)C; Sar = CNCC(=O)O

Columns and labels:
Assay type in all cases: cell-based, rat
[1] = test system: fibrin-induced microglia activation; test: Image-based assay of fibrin-induced microglia activation (HTS and dose response); conditions: for inhibition at 10 µM / IC50: Rattus norvegicus, Microglia; for inhibition at 10 µM: read-out: Fibrin % inhibition
[2] = test system: fibrin- and LPS-induced microglia activation; test: cells; conditions: for inhibition at 10 µM: Rattus norvegicus, Microglia
[3] = test system: LPS-induced microglia activation; test: Image-based assay of LPS-induced microglia activation (HTS and dose response); conditions: for inhibition at 10 µM / IC50: Rattus norvegicus, Microglia; for inhibition at 10 µM: read-out: LPS % inhibition
[4] = primary HTS, 10 μM, fibrin-stimulated primary microglia
[5] = primary HTS, 10 μM, LPS-stimulated primary microglia
[6] = primary microglia HTS, fibrin stimulation, compounds at 10 μM
[7] = classification by fibrin and LPS inhibition, HTS at 10 μM
[8] = primary microglia HTS, LPS stimulation, compounds at 10 μM
[9] = primary microglia HTS, fibrin stimulation, increased cell size (>800 μm^2) as marker of activation
[10] = quadrant by fibrin and LPS inhibition in HTS of 1907 compounds
[11] = 48 h, primary microglia HTS, LPS stimulation, increased cell size (>800 μm^2) as marker of activation

CCC[C@@H]1C[C@@H](C(=O)N[C@@H]([C@H]2O[C@H](SC)[C@H](O)[C@@H](O)[C@H]2O)[C@H](C)Cl)N(C)C1 [Clindamycin Hydrochloride]
inhibition at 10 µM [1]: -44%
Quadrant (FIG. 5b) [2]: Q4
inhibition at 10 µM [3]: 7%

CCCCCCCCCCCCCCCC(=O)O[C@@H]1[C@@H](O)[C@@H](O)[C@@H]([C@H](NC(=O)[C@@H]2C[C@@H](CCC)CN2C)[C@H](C)Cl)O[C@@H]1SC.Cl [Clindamycin Palmitate Hydrochloride]
Fibrin % inhibition [1, 4]: −23%
Quadrant (FIG. 5b) ([2]; primary HTS, 10 μM): Q4
LPS % inhibition [3, 5]: 11%

C[C@]12CCC(=O)C=C1CC[C@@H]1[C@@H]2C(=O)C[C@@]2(C)[C@H]1CC[C@]2(O)C(=O)CO [Cortisone]
Fibrin % inhibition [1, 4]: 37%
Quadrant (FIG. 5b) ([2]; primary HTS, 10 μM): Q4
LPS % inhibition [3, 5]: 44%

CCOP(=S)(OCC)Oc1ccc2c(C)c(Cl)c(=O)oc2c1 [Coumophos]
Fibrin % inhibition [1, 6]: −12%
Quadrant (FIG. 5b) [2, 7]: Q4
LPS % inhibition [3, 8]: 16%

OC[C@H]1O[C@H](O[C@H]2[C@H](O)[C@@H](O)C(O)O[C@@H]2CO)[C@H](O)[C@@H](O)[C@@H]1O (stereo partly drawn) [D-(+)-maltose]
Fibrin % inhibition [1, 6]: −7%
Quadrant (FIG. 5b) [2, 7]: Q4
LPS % inhibition [3, 8]: 14%

C=C(C)[C@H]1CC=C(C)CC1 [D-limonene]
Fibrin % inhibition [1, 6]: −19%
Quadrant (FIG. 5b) [2, 7]: Q4
LPS % inhibition [3, 8]: 11%

Cc1c2oc3c(C)ccc(C(=O)N[C@@H]4C(=O)N[C@H](C(C)C)C(=O)N5CCC[C@H]5C(=O)N(C)CC(=O)N(C)[C@@H](C(C)C)C(=O)O[C@@H]4C)c3nc-2c(C(=O)N[C@@H]2C(=O)N[C@H](C(C)C)C(=O)N3CCC[C@H]3C(=O)N(C)CC(=O)N(C)[C@@H](C(C)C)C(=O)O[C@@H]2C)c(N)c1=O [Dactinomycin] (I: T[dV]P[Sar][NMeV] / II: T[dV]P[Sar][NMeV]; ester I:1-I:C, II:1-II:C; linker I:N-II:N via Actinocin(9to1))
inhibition at 10 µM [1, 9]: 106%
Quadrant (FIG. 5b) [2, 10]: Q2
inhibition at 10 µM [3, 11]: 106%

Cc1nc(Nc2ncc(C(=O)Nc3c(C)cccc3Cl)s2)cc(N2CCN(CCO)CC2)n1 [Dasatinib]
inhibition at 10 µM [1, 9]: 109%
Quadrant (FIG. 5b) [2, 10]: Q2
inhibition at 10 µM [3, 11]: 70%

CN1C(=O)CN=C(c2ccccc2)c2cc(Cl)ccc21 [Diazepam]
inhibition at 10 µM [1]: -19%
Quadrant (FIG. 5b) [2]: Q4
inhibition at 10 µM [3]: 5%

O=C(O)Cc1ccccc1Nc1c(Cl)cccc1Cl [Diclofenac]
inhibition at 10 µM [1, 6]: -27%
Quadrant (FIG. 5b) [2, 7]: Q4
inhibition at 10 µM [3, 8]: 12%

CN(C)CCOC(c1ccccc1)c1ccccc1 [Diphenhydramine]
inhibition at 10 µM [1]: -47%
Quadrant (FIG. 5b) [2]: Q4
inhibition at 10 µM [3]: 15%

COc1cc2c(cc1OC)C(=O)C(CC1CCN(Cc3ccccc3)CC1)C2 (stereo not drawn) [Donepezil]
inhibition at 10 µM [1]: 5%
Quadrant (FIG. 5b) [2]: Q4
inhibition at 10 µM [3]: 17%

COc1cccc2c1C(=O)c1c(O)c3c(c(O)c1C2=O)C[C@@](O)(C(=O)CO)C[C@@H]3O[C@H]1C[C@H](N)[C@H](O)[C@H](C)O1 [Doxorubicin]
inhibition at 10 µM [1, 9]: 106%
Quadrant (FIG. 5b) [2, 10]: Q2
inhibition at 10 µM [3, 11]: 108%

O=C(CCCN1CC=C(n2c(=O)[nH]c3ccccc32)CC1)c1ccc(F)cc1 [Droperidol]
inhibition at 10 µM [1]: -3%
Quadrant (FIG. 5b) [2]: Q4
inhibition at 10 µM [3]: 20%

CN[C@@H](C)[C@H](O)c1ccccc1.Cl [Ephedrine (1r,2s) Hydrochloride]
Fibrin % inhibition [1, 6]: −26%
Quadrant (FIG. 5b) [2, 7]: Q4
LPS % inhibition [3, 8]: 10%

C[C@]12CC[C@@H]3c4ccc(O)cc4CC[C@H]3[C@@H]1C[C@H](O)[C@@H]2O [Epiestriol]
inhibition at 10 µM [1]: -25%
Quadrant (FIG. 5b) [2]: Q4
inhibition at 10 µM [3]: 6%

C[C@]12CC[C@@H]3c4ccc(O)cc4CC[C@H]3[C@@H]1C[C@@H](O)[C@@H]2O [Estriol]
inhibition at 10 µM [1]: -17%
Quadrant (FIG. 5b) [2]: Q4
LPS % inhibition ([3]; 10 µM): 16%
inhibition at 10 µM [3]: 8%

CCN1C(=O)NC(c2ccccc2)C1=O (stereo not drawn) [Ethotoin]
inhibition at 10 µM [1, 6]: -36%
Quadrant (FIG. 5b) [2, 7]: Q4
inhibition at 10 µM [3, 8]: 12%

NC(N)=Nc1nc(CSCCC(N)=NS(N)(=O)=O)cs1 [Famotidine]
inhibition at 10 µM [1]: -82%
Quadrant (FIG. 5b) [2]: Q4
inhibition at 10 µM [3]: 9%

Nc1ccc(C(=O)Oc2ccccc2)c(O)c1 [Fenamisal, Phenyl Aminosalicylate]
Fibrin % inhibition [1, 6]: −8%
Quadrant (FIG. 5b) [2, 7]: Q4
LPS % inhibition [3, 8]: 16%

CC(C)(C(=O)O)c1ccc(C(O)CCCN2CCC(C(O)(c3ccccc3)c3ccccc3)CC2)cc1 (stereo not drawn) [Fexofenadine]
inhibition at 10 µM [1]: 13%
Quadrant (FIG. 5b) [2]: Q4
inhibition at 10 µM ([3]; 48 h): 14%

C[C@@H]1C[C@H]2[C@@H]3C[C@H](F)C4=CC(=O)C=C[C@]4(C)[C@@]3(F)[C@@H](O)C[C@]2(C)[C@@]1(O)C(=O)CO [Flumethasone, reference compound]
IC50 ([1]; 48 h, read-out: Fibrin IC50): < 0.001 µM
inhibition at 10 µM [1]: 109%
IC50 ([1]; read-out: Fibrin IC50 (uM)): < 0.001 µM
IC50 ([1]; read-out: Fibrin IC50 (uM) (Suppl. Table 7)): < 0.001 µM
Quadrant (FIG. 5b) [2]: Q2
inhibition at 10 µM ([2]; read-out: Cherry-picked Hit (Suppl. Table 7)): > 50%
inhibition at 10 µM ([2]; read-out: Hit): > 50%
inhibition at 10 µM ([3]; 48 h): 101%
IC50 ([3]; 48 h, read-out: LPS IC50): < 0.001 µM
IC50 ([3]; read-out: LPS IC50 (uM)): < 0.001 µM
IC50 ([3]; read-out: LPS IC50 (uM) (Suppl. Table 7)): < 0.001 µM

CC(=O)OCC(=O)[C@@]12OC(C)(C)O[C@@H]1C[C@H]1[C@@H]3C[C@H](F)C4=CC(=O)C=C[C@]4(C)[C@@]3(F)[C@@H](O)C[C@@]12C [Fluocinonide, reference compound]
inhibition at 10 µM [1]: 112%
IC50 ([1]; read-out: fib_IC50 (uM)): 0.002 µM
Activity [2]: fib/LPS
Quadrant (FIG. 5b) [2]: Q2
inhibition at 10 µM ([3]; 48 h): 106%
IC50 ([3]; read-out: LPS_IC50 (uM)): 0.002 µM

CNCCC(Oc1ccc(C(F)(F)F)cc1)c1ccccc1.Cl (stereo not drawn) [Fluoxetine Hydrochloride, Fluoxetine]
Fibrin % inhibition [1]: 46%
Quadrant (FIG. 5b) [2]: Q1
LPS % inhibition [3]: 65%

CC(C)n1c(/C=C/C(O)CC(O)CC(=O)O)c(-c2ccc(F)cc2)c2ccccc21 (stereo not drawn) [Fluvastatin]
inhibition at 10 µM [1, 9]: 110%
Quadrant (FIG. 5b) [2, 10]: Q2
inhibition at 10 µM [3, 11]: 101%

O=C1OCCN1/N=C/c1ccc([N+](=O)[O-])o1 [Furazolidone]
inhibition at 10 µM [1]: 3%
Quadrant (FIG. 5b) [2]: Q4
inhibition at 10 µM ([3]; 48 h): 8%

NS(=O)(=O)c1cc(C(=O)O)c(NCc2ccco2)cc1Cl [Furosemide]
inhibition at 10 µM [1]: -5%
Quadrant (FIG. 5b) [2]: Q4
inhibition at 10 µM ([3]; 48 h): 25%

Cc1cnc(C(=O)NCCc2ccc(S(=O)(=O)NC(=O)NC3CCCCC3)cc2)cn1 [Glipizide]
inhibition at 10 µM [1]: 12%
Quadrant (FIG. 5b) [2]: Q4
inhibition at 10 µM ([3]; 48 h): 18%

C[N+]1(C)CCC(OC(=O)C(O)(c2ccccc2)C2CCCC2)C1 (stereo not drawn) [Glycopyrrolate]
inhibition at 10 µM [1]: -33%
Quadrant (FIG. 5b) [2]: Q4
inhibition at 10 µM ([3]; 48 h): 3%

N=C(N)NCCN1CCCCCCC1 [Guanethidine]
inhibition at 10 µM [1]: -44%
Quadrant (FIG. 5b) [2]: Q4
inhibition at 10 µM ([3]; 48 h): 12%

COc1ccc2c(c1OC)C(=O)O[C@@H]2[C@H]1c2cc3c(cc2CCN1C)OCO3 [Hydrastine (1r,9s)]
Fibrin % inhibition ([1]; primary microglia HTS, fibrin stimulation, activation = cell size >800 μm2): −27%
Quadrant (FIG. 5b) [2, 10]: Q4
LPS % inhibition ([3]; primary microglia HTS, LPS stimulation, activation = cell size >800 μm2): 10%

CC(C)[N+]1(C)[C@@H]2CC[C@H]1CC(OC(=O)C(CO)c1ccccc1)C2.[Br-] (stereo partly drawn) [Ipratropium Bromide]
Fibrin % inhibition [1]: 6%
Quadrant (FIG. 5b) [2]: Q4
LPS % inhibition [3]: 8%
